Assay results taken from PubChem BioAssay AID624028 (Vanderbilt Specialized Chemistry Center, 2012).

Biological target: Metabotropic glutamate receptor 3 (Rattus norvegicus) (UniProt P31422)
Experiment: PubChem AID 624028
Settings: TREx293 mGlu3/Galpha15, calcium fluorescence, antagonist mode

Metabotropic glutamate receptor 3 (Rattus norvegicus), sequence (P31422 whole entry, looked up): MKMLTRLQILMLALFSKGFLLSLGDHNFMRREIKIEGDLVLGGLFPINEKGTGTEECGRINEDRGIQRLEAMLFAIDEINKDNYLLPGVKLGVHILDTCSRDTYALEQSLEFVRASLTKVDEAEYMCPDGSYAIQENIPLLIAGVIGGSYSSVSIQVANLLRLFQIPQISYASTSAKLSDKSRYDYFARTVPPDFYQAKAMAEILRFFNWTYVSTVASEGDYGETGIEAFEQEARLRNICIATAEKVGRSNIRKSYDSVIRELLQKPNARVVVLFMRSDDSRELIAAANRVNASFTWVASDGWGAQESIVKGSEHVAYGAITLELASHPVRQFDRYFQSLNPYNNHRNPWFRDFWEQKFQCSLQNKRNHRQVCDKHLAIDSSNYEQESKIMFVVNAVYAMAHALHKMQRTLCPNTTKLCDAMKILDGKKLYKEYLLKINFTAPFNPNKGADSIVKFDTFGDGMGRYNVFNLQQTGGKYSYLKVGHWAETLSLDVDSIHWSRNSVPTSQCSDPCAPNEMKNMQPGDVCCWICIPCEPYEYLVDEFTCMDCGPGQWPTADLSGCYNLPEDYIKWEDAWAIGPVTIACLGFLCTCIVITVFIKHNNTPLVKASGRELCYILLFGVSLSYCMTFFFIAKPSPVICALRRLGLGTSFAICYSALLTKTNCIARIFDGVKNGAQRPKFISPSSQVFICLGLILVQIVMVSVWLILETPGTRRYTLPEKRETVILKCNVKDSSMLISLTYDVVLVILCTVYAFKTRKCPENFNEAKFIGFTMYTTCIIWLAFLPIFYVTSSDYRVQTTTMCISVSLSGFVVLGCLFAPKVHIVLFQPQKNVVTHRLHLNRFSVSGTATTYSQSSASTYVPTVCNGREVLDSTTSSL

IC50: 650 nM
Structure (SMILES): COc1ccc(C#Cc2ccc(C(=O)N3CCC[C@@H](CO)C3)cc2)cc1
